{"source": "paper PMC8711236", "about": "(Biochemistry, 2021)", "target": "Cytochrome P450 3A4 (CYP3A4) (Homo sapiens, UniProt P08684)", "sequence (P08684 14-503)": "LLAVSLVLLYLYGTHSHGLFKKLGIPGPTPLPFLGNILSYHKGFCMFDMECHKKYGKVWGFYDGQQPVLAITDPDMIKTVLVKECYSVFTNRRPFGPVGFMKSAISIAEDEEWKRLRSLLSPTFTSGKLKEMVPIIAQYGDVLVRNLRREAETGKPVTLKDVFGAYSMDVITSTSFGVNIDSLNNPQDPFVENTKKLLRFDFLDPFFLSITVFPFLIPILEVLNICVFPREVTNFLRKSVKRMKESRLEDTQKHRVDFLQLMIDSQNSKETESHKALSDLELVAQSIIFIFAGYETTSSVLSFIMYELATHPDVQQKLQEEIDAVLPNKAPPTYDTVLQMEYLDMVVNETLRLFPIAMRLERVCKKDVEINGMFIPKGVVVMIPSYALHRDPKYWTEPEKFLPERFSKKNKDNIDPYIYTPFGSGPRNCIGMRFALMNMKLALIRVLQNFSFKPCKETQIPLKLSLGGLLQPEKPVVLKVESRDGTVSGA", "sequence (P00388 2-678 partner)": "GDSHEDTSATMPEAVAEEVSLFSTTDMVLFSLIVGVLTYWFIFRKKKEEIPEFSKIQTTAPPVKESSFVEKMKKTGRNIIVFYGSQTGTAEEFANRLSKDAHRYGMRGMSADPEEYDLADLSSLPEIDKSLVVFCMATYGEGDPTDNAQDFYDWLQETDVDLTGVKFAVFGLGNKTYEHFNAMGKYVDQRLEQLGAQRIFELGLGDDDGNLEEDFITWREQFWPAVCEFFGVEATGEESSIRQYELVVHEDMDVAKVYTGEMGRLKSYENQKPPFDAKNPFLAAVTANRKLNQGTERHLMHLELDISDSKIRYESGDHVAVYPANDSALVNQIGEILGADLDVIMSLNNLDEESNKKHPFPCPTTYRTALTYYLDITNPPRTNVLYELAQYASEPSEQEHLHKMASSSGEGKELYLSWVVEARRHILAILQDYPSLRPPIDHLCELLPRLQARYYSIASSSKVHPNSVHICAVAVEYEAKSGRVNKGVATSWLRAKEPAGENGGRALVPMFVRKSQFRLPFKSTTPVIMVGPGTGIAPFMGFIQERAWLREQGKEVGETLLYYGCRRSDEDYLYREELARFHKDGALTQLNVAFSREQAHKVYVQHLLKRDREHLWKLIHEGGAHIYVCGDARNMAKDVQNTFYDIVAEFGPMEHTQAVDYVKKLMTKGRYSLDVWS", "experiment": "UV-vis spectral equilibrium titration", "assay_type": "binding"}
{"smiles": "CC(=O)[C@H]1CC[C@H]2[C@@H]3CCC4=CC(=O)CC[C@]4(C)[C@H]3CC[C@]12C", "note": "[PRG, progesterone]", "values": [{"measurement": "Kd", "value": 35, "unit": "µM"}]}
